Results on 4 compounds are retold here after US4444782A, “2(4-tert.-Butyl-2,6-dichlorophenyl-imino)imidazolidine and use as an anti-hypertension agent” (SmithKline Beckman Corporation, priority 1982, dated 1984).

The conditions of series [1]: cited literature; cited from earlier work.
The target of series [2] is alpha1 receptor (rabbit ear artery). The series is described as follows: isolated perfused rabbit ear artery (postjunctional alpha1 agonism). As to conditions: for pEC50: isolated perfused rabbit ear artery, read-out: ED50 Alpha1 Rabbit Ear Artery. An excerpt: Since the early work on clonidine, at least two types of vascular alpha receptor sites have been identified. A postjunctional, or postsynaptic, alpha1 receptor was initially reported. […] In the alpha test protocol in the isolated perfused rabbit ear artery described by J. P. Hieble et al., Arch.

Series [3] deals with T1, alpha2 receptor (guinea pig atrium) (Cavia porcellus, UniProt Q60474).
T1 construct: isolated, superfused guinea pig left atrium; from tissue; host or cells: guinea pig left atrium (sympathetic nerve endings)
T1 sequence (Q60474 1-464): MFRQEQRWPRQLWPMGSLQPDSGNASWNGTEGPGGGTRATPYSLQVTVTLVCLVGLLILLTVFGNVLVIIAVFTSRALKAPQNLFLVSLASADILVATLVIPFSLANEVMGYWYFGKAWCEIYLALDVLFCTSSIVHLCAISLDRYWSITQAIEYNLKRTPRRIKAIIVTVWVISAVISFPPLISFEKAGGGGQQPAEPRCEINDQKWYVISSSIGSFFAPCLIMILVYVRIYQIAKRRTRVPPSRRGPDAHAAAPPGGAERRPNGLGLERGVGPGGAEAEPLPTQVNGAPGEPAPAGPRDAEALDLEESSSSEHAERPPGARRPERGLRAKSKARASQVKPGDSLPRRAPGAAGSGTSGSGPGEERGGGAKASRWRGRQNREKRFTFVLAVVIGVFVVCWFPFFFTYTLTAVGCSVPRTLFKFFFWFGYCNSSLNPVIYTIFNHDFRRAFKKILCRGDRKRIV
The series is described as follows: isolated, superfused guinea pig left atrium (prejunctional alpha2 agonism). An excerpt:
The second type of vascular alpha receptor site to be reported is located prejunctionally on sympathetic neurons and called alpha2 sites. The protocol employed for determining this activity is the isolated, superfused guinea pig left atrium described in the cited Hieble publication.

Series [4] deals with alpha3 (vascular postjunctional alpha2) receptor, dog saphenous vein. As to conditions: for α2/α3 Selectivity: ratio of ED50 guinea pig atrium to ED50 dog saphenous vein. The procedure: (§1) Another test system to assay for vascular postjunctional alpha2 stimulation utilizes the dog saphenous vein. This activity may be called alpha3 stimulation. The protocol for this test is as follows:
(§2) Mongrel dogs of either sex are anesthetized with sodium pentobarbital (50 mg/kg, i.p.). After the dog is anesthetized, the saphenous vein is located and cleaned of connective tissue, a 2-4 cm. segment is tied at both ends and removed. The venous segment is placed in a dish of cold Krebs solution and additional cleaning is performed to remove as much non-vascular tissue as possible. Ring segments (3-4 mm.) are then cut from the vessel.
(§3) The vessel is mounted in a superfusion chamber as known to the art for the rabbit ear artery except that the insert holding the venous ring has two parallel 0.5 mm tungsten wires separated by 2 mm. The tissue is slipped over these parallel wires and the insert attached to the main block. A third tungsten wire is then inserted through the ring and attached to a force-displacement transducer.
(§4) An initial tension of 4 gm is placed on the tissue, with tension being adjusted until a stable resting tension of 2 gm. is produced. Concentration-effect curves are determined as described in the publication referred to above for the ear artery segment.

The target in series [5] is T2, alpha3 (vascular postjunctional alpha2) receptor, dog saphenous vein (Canis lupus familiaris, UniProt A0A8I3Q7S8).
T2 construct: the saphenous vein is located and cleaned of connective tissue; from tissue; host or cells: saphenous vein rings of mongrel dogs
T2 sequence (A0A8I3Q7S8 1-427): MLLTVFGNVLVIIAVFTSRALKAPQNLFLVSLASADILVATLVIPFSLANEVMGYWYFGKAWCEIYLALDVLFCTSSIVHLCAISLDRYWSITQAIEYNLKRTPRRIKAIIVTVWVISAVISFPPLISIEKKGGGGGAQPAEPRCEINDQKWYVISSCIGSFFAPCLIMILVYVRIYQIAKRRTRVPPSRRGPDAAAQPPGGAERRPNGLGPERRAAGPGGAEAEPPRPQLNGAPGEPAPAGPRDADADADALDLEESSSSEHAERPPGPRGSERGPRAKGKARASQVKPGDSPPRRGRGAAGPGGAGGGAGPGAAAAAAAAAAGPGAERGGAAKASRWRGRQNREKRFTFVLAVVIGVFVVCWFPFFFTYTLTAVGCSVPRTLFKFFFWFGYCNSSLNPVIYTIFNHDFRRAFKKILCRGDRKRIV
As to conditions: for relative potency, alpha3: dog saphenous vein, clonidine versus the compound of this invention. Here is the method:
as §1, §2, §3, §4

A further series concerns normotensive rat. The series is described as follows: reduction of blood pressure in the normotensive rat model. Type of series: in vivo. As to conditions: for ED30: iv, read-out: EC30 for the reduction of blood pressure (hypotensive effect). The procedure:
In the normotensive rat model, the I.V. EC30 for the reduction of blood pressure was 9.8 μg/kg.

Series [6] can be described thus: potentiation of hexabarbitol induced sleep time (sedation). Type of series: in vivo.

pEC50: −log10 of the molar value. Structures can show the parent of a compound that is named as a salt. Where two headings read alike, the source gives them in different places.

Take `CCc1ccc(N=C2NCCN2)c(Cl)c1` [2-(2-Chloro-4-ethylphenylimino)-imidazolidine]: the “sedation, in words (literature)” value in series [1] is reported as “very strong sedative or sleep inducer”.
As for `Clc1cccc(Cl)c1NC1=NCCN1` [CLONIDINE HYDROCHLORIDE], the pEC50 was 6.54 in series [2]; 7.77 in series [3]; 7.80 in series [5] (dog saphenous vein ring, read-out: ED50 Alpha3 Dog Saphenous Vein). Besides, in series [4], the “α2/α3 Selectivity” value was 1.
The ED50 is the dose at which the effect has come halfway, by size or by number of responders. As to `Clc1cccc(Cl)c1N=C1NCCN1` [clonidine, 2-(2,6-dichlorophenylimino)-2-imidazolidine], the “sedation, in words (literature)” value in series [1] is “heavy sedation”. In addition, the “hypotensive potency relative to the compound of this invention” value in the series on normotensive rat (clonidine compared with the compound of this invention) is “only slightly more potent”. Besides, in the series on normotensive rat (normotensive rat, I.V.), the ED30 stood at 2.3 µg/kg. In series [3] (guinea pig left atrium), the “activity relative to the compound of this invention, alpha2 (times as active)” value was 46. The “marked sedation at a dose lower than the compound of this invention (times lower)” value in series [6] (compared with the compound of this invention) was roughly 30. Moreover, in series [6] (iv, read-out: ED50 in the hexabarbitol sleep time assay), the ED50 was determined as 9.6 µg/kg. Besides, the “specificity between pre- and post-synaptic receptor subtypes, in words” value in series [4] (in vitro, Table A) is “very little specificity”. For the same compound, the “α2/α3 Selectivity” value in series [4] is listed as 1. Moreover, in series [5], the “relative potency, alpha3” value is reported as “about equipotent”.
In the case of `CC(C)(C)c1cc(Cl)c(N=C2NCCN2)c(Cl)c1` [COMPOUND I, 2-(4-tert.-butyl-2,6-dichlorophenylimino)imidazolidine], the ED30 in the series on normotensive rat (Rattus norvegicus) stood at 9.8 µg/kg. The pEC50 in series [2] was 7.52; in series [3] (isolated superfused guinea pig left atrium, read-out: ED50 Alpha2 Guinea Pig Atrium) it was 6.10; in series [5] it was 7.59. For the same compound, the “agonist potency relative to clonidine, alpha1” value in series [2] (rabbit ear artery, compared with clonidine) is “eight times more potent”. The 50% effective dose (ED50) in series [6] (ip, read-out: ED50 for potentiation of hexabarbitol induced sedation) was 260 µg/kg. In series [6] (summary statement), the “sedative side effects, in words” value is recorded as “devoid of the sedative side effects”. In addition, the “selectivity for the postsynaptic receptor in vitro (fold)” value in series [4] (post- versus presynaptic receptor, in vitro, Table A) was 30. For the same compound, the “α2/α3 Selectivity” value in series [4] was determined as 30. Also, the “relative potency, alpha3” value in series [5] is “about equipotent”.
